From patent EP1311531B1, “STEROID DERIVED ANTIBIOTICS” (Brigham Young University, priority 2000, dated 2002)
Values after ≈ are worked out from the molar mass of the structure shown. Where two headings read alike, the source gives them in different places.

Legend:
E. coli (ATCC 10798) [1] = test: MIC and MBC measurement; assay type: cell-based, Escherichia coli; settings: ATCC10798; for MBC: read-out: MBC; for MIC: read-out: MIC
Description: (§1) General: Microorganisms. Reference strains were purchased from the American Type Culture Collection (Rockville, MD) or Bactrol disks from Difeo Laboratories (Detroit, MI). […] Bacterial strains were maintained on Mueller-Hinton agar plates, and Candida albicans was maintained on Sabouraud Dextrose agar plates.
(§2) Aliquots (20 mL) of the homogeneous solution were then poured in sterile plastic petri dishes (100 x 15 mm, Fisher Scientific). Solutions of compounds were made by dissolving the HCl salt of the respective compound into an appropriate amount of deionized and sterilized water followed by microfiltration.
(§3) Aliquots of 1 mL of the suspension were added to test tubes containing 1 mL TSB and incrementally varied concentrations of cholic acid derivatives and/or erythromycin or novobiocin. […] Additionally, an alliquot from each of the samples showing no measurable turbidity was subcultured on TSA plates (alliquots were diluted to provide fewer than 300 CFU). Colonies that grew on the subculture after overnight incubation were counted and the number of CFU/mL in the samples were calculated. The calculated values were compared to the number of CFU/mL in the original inoculum.

E. coli (ATCC 10798) [2] = test: Sensitization to erythromycin or novobiocin (outer membrane permeabilization, FIC); assay type: cell-based, Escherichia coli; settings: for (a) Concentration required to lower the MIC of erythromycin from 70 to 1 µg/mL / (b) MBC with 1 µg/mL erythromycin / (d) Concentration required to lower the MIC of novobiocin from >500 to 1 µg/mL / FIC^c (FIC values with erythromycin) / FIC^c (FIC values with novobiocin): Table 9, Escherichia coli (ATCC 10798)
Description: FICs can be performed by checkerboard titrations of compounds in one dimension of a microtiter plate, and of antibiotics in the other dimension, for example. The FIC is calculated by looking at the impact of one antibiotic on the MIC of the other and vice versa. […] Preferably, an FIC of less than 0.5 is obtained for synergism. As used herein, FIC can be determined as follows: FIC = (MIC(compound in combination))/(MIC(compound alone)) + (MIC(antibiotic in combination))/(MIC(antibiotic alone)) [formula]
(§4) Aliquots of 1 mL of the suspension were added to test tubes containing 1 mL TSB and incrementally varied concentrations of cholic acid derivatives and/or erythromycin or novobiocin. In the sensitization experiments, erythromycin or novobiocin were added 15 minutes later than the cholic acid derivatives. The samples were subjected to stationary incubation at 37°C for 24 hours. Sample turbidity was determined by measuring absorption at 760 nm (HP 8453 UV-Visible Chemstation, Hewlett Packard). Additionally, an alliquot from each of the samples showing no measurable turbidity was subcultured on TSA plates (alliquots were diluted to provide fewer than 300 CFU). Colonies that grew on the subculture after overnight incubation were counted and the number of CFU/mL in the samples were calculated. The calculated values were compared to the number of CFU/mL in the original inoculum.
They were also tested for the ability to permeabilize the outer membrane of Gram-negative bacteria, causing sensitization to hydrophobic antibiotics that cannot cross the outer membrane. The permeabilization of the outer membrane was measured using erythromycin and novobiocin.

[3] = system: Escherichia coli ATCC 25922; test: MIC and MBC measurement; assay type: cell-based; settings: Escherichia coli, ATCC25922, antibiotic alone; E. coli (ATCC 25922); read-out: MIC
Description: General: Microorganisms. Reference strains were purchased from the American Type Culture Collection (Rockville, MD) or Bactrol disks from Difeo Laboratories (Detroit, MI). The following specific ATCC strains were used: 10798 Escherichia coli, 25922 Escherichia coli, 13883 Klebsiella pneumoniae, 27853 Pseudomonas aeruginosa, 14028 Salmonella typhimurium, 29212 Enterococcus faecalis, 25923 Staphylococcus aureus, 19615 Streptococcus pyogenes, and 90028 Candida albicans. Bacterial strains were maintained on Mueller-Hinton agar plates, and Candida albicans was maintained on Sabouraud Dextrose agar plates.
Tryptic soy broth (TSB) was made by dissolving 27.5 grams of tryptic soy broth without dextrose (DIFCO Laboratories) in 1 liter of deionized water and sterilizing at 121 °C for 15 minutes. Solid agar (TSA) plates were made by dissolving 6.4 grams of tryptic soy broth and 12 grams of agar (purified grade, Fischer Scientific) in 800 mL of deionized water and sterilizing at 121 °C for 20 minutes. Aliquots (20 mL) of the homogeneous solution were then poured in sterile plastic petri dishes (100 x 15 mm, Fisher Scientific). Solutions of compounds were made by dissolving the HCl salt of the respective compound into an appropriate amount of deionized and sterilized water followed by microfiltration.
as §4, with “inoculum. […]” for “inoculum.”

[4] = system: Pseudomonas aeruginosa ATCC 27853; test: MIC and MBC measurement; assay type: cell-based; settings: ATCC27853, antibiotic alone, P. aureginosa (ATCC 27853)
Description: as §1, §2, §3

[5] = Table 9, Escherichia coli (ATCC 10798)
[6] = Escherichia coli, antibiotic alone, E. coli (ATCC 10798)

| MIC (E. coli (ATCC 10798) [1]; [5]) | MIC (E. coli (ATCC 10798) [1]; Escherichia coli, E. coli (ATCC 10798)) | SMILES | MBC (E. coli (ATCC 10798) [1]; [5]) | (a) Concentration required to lower the MIC of erythromycin from 70 to 1 µg/mL (E. coli (ATCC 10798) [2]) | (b) MBC with 1 µg/mL erythromycin (E. coli (ATCC 10798) [2]) | (d) Concentration required to lower the MIC of novobiocin from >500 to 1 µg/mL (E. coli (ATCC 10798) [2]) | FIC^c (FIC values with erythromycin) (E. coli (ATCC 10798) [2]) | FIC^c (FIC values with novobiocin) (E. coli (ATCC 10798) [2]) | concentration required to lower the MIC of erythromycin to 1 µg/mL (E. coli (ATCC 10798) [2]; E. coli (ATCC 10798)) | MIC (E. coli (ATCC 10798) [1]; [6]) | MIC [3] | MIC [4] |
| --- | --- | --- | --- | --- | --- | --- | --- | --- | --- | --- | --- | --- |
| 70 µg/mL (≈ 127 µM) | – | C[C@H](CCO)[C@H]1CC[C@H]2[C@@H]3[C@H](OCCCN)C[C@@H]4C[C@H](OCCCN)CC[C@]4(C)[C@H]3C[C@H](OCCCN)[C@]12C [Compound 109] | 120 µg/mL (≈ 217 µM) | 4.0 µg/mL | 80 µg/mL | 15 µg/mL | 0.071 | 0.22 | – | – | – | – |
| 30 µg/mL (≈ 51.7 µM) | – | COCCC[C@@H](C)[C@H]1CC[C@H]2[C@@H]3[C@H](OCCCN)C[C@@H]4C[C@H](OCCCN)CC[C@]4(C)[C@H]3C[C@H](OCCCN)[C@]12C [Compound 111] | 33 µg/mL (≈ 56.9 µM) | 1.0 µg/mL | 20 µg/mL | 2.0 µg/mL | 0.048 | 0.069 | – | – | – | – |
| 3 µg/mL (≈ 4.72 µM) | – | CCCCCOCCC[C@@H](C)[C@H]1CC[C@H]2[C@@H]3[C@H](OCCCN)C[C@@H]4C[C@H](OCCCN)CC[C@]4(C)[C@H]3C[C@H](OCCCN)[C@]12C [Compound 113] | 5 µg/mL (≈ 7.86 µM) | 0.8 µg/mL | 2.0 µg/mL | 1.0 µg/mL | 0.28 | 0.27 | – | – | – | – |
| – | 60 µg/mL (≈ 92.9 µM) | C[C@H](CCCOS(=O)(=O)O)[C@H]1CC[C@H]2[C@@H]3[C@H](OCCCN)C[C@@H]4C[C@H](OCCCN)CC[C@]4(C)[C@H]3C[C@H](OCCCN)[C@]12C [Compound 132] | – | – | – | – | – | – | 4.0 µg/mL | – | – | – |
| – | – | CC[C@H]1OC(=O)[C@H](C)[C@@H](O[C@H]2C[C@@](C)(OC)[C@@H](O)[C@H](C)O2)[C@H](C)[C@@H](O[C@@H]2O[C@H](C)C[C@H](N(C)C)[C@H]2O)[C@](C)(O)C[C@@H](C)C(=O)[C@H](C)[C@@H](O)[C@]1(C)O [erythromycin, reference compound] | – | – | – | – | – | – | – | 70 µg/mL (≈ 95.4 µM) | 30 µg/mL (≈ 40.9 µM) | 240 µg/mL (≈ 327 µM) |
| – | – | CO[C@@H]1[C@@H](OC(N)=O)[C@@H](O)[C@H](Oc2ccc3c(O)c(NC(=O)c4ccc(O)c(CC=C(C)C)c4)c(=O)oc3c2C)OC1(C)C [novobiocin, reference compound] | – | – | – | – | – | – | – | > 500 µg/mL | – | > 500 µg/mL |
